The text below walks through data of BindingDB's records for doi:10.1016/0960-894X(95)00199-4 (1995).

pIC50: −log10 of the molar value.

One assay concerns the target T1, Thromboxane A2 receptor (Homo sapiens, UniProt P21731).
T1 sequence (P21731 whole entry): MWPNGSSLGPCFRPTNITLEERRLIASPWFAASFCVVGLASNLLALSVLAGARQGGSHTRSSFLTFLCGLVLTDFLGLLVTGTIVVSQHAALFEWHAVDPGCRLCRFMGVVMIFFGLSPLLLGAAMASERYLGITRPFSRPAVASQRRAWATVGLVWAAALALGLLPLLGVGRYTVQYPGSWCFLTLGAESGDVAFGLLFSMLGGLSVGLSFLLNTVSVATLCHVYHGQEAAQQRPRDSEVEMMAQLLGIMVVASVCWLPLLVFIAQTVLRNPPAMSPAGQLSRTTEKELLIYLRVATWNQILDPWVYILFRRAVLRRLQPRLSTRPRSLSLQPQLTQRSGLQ
Briefly: Compound was evaluated for the inhibition of platelet aggregation, assessed turbidimetrically in citreated human platelet rich plasma (PRP).
Compound `O=C(O)CCC/C=C\C[C@H]1[C@H](F)CC[C@@H]1NS(=O)(=O)c1ccc(F)cc1` showed a negative logarithm of the IC50 (pIC50) of 6.27. Same read-out and setting: then `O=C(O)CC/C=C\C[C@@H]1[C@@H](CNS(=O)(=O)c2ccc(F)cc2)CC[C@H]1F`, with 5.72; and `O=C(O)CCC/C=C\C[C@H]1[C@H](F)CC[C@@H]1NS(=O)(=O)C1=C2N=CC=CC2CC=C1` (stereo partly drawn), with 5.70.

Biological target in the next assay: not listed separately
In words: Compound was evaluated for the inhibition of platelet aggregation, assessed turbidimetrically in citreated human platelet rich plasma (PRP).
`O=C(O)CC/C=C\CC1=CCC[C@@H]1NS(=O)(=O)c1ccccc1` showed a negative logarithm of the IC50 (pIC50) of 5.66. With `O=C(O)CC/C=C\CC1=CCC[C@@H]1NS(=O)(=O)c1ccc(Cl)c(Cl)c1`, the pIC50 was 5.72. Same read-out and setting: in the case of `O=C(O)CC/C=C\C[C@@H]1[C@@H](CNS(=O)(=O)c2ccc(F)cc2)CC[C@@H]1F` it was 6.19. Still for that read-out and setting: then `O=C(O)CCC/C=C\C[C@H]1[C@H](F)CC[C@@H]1NS(=O)(=O)c1ccccc1`, with 5.96; and `O=C(O)CCC/C=C\CC1=CCC[C@@H]1NS(=O)(=O)c1ccc(F)cc1`, with 5.36; and `O=C(O)COCCCCC1=CCC[C@@H]1NS(=O)(=O)c1ccc(F)cc1`, with 5.70. Same read-out and setting: then `O=C(O)COCCCC[C@H]1[C@H](F)CC[C@@H]1NS(=O)(=O)c1ccccc1[N+](=O)[O-]`, with 5.26; and `O=C(O)CC/C=C\C[C@H]1[C@H](F)CC[C@@H]1NS(=O)(=O)c1ccccc1[N+](=O)[O-]`, with 6.25; and `O=C(O)CCCCCCC1=CCC[C@@H]1NS(=O)(=O)c1ccc(F)cc1`, with 6.21. `O=C(O)CCC/C=C\C[C@H]1[C@H](F)CC[C@@H]1NS(=O)(=O)c1ccc2ccccc2c1` showed a pIC50 of 6.70. Same read-out and setting: in the case of `O=C(O)COCCCCC1=CCC[C@@H]1NS(=O)(=O)c1ccc(Cl)c(Cl)c1` it was 5.72; in that of `Cc1ccc(S(=O)(=O)N[C@H]2CC[C@@H](F)[C@@H]2CCCCOCC(=O)O)cc1`, 5.74. With `O=C(O)COCCCCC1=CCC[C@@H]1CNS(=O)(=O)c1ccc(F)cc1`, the negative-log IC50 (pIC50) is 6.70. This pIC50 is 0.96 log units higher than that of the compound before.

`O=C(O)CC/C=C\C[C@H]1[C@H](F)CC[C@@H]1NS(=O)(=O)c1ccccc1`: the pIC50 is 5.70. On the same count and under the same terms, then `O=C(O)COCCCC[C@@H]1[C@@H](CNS(=O)(=O)c2ccc(F)cc2)CC[C@H]1F`, with 6.19; and `O=C(O)COCCCC[C@H]1[C@H](F)CC[C@@H]1NS(=O)(=O)c1ccc(F)cc1F`, with 5.74. Still for that read-out and setting: in the case of `O=C(O)CCC/C=C\CC1=CCC[C@@H]1NS(=O)(=O)c1ccccc1[N+](=O)[O-]` it was 6.17; in that of `O=C(O)CC/C=C\CC1=CCC[C@@H]1NS(=O)(=O)c1ccccc1[N+](=O)[O-]`, 6.22. Turning to `O=C(O)CC/C=C\CC1=CCC[C@@H]1NS(=O)(=O)c1ccc(F)cc1`, the pIC50 is 5.89. In the case of `O=C(O)COCCCC[C@H]1[C@H](F)CC[C@@H]1NS(=O)(=O)c1ccc(F)cc1`, the negative logarithm of the IC50 (pIC50) is 5.74. Same read-out and setting: then `Cc1ccc(S(=O)(=O)N[C@H]2CC[C@@H](F)[C@@H]2C/C=C\CCCC(=O)O)cc1`, with 6.59; and `O=C(O)CCCCCC[C@H]1[C@H](F)CC[C@@H]1NS(=O)(=O)c1ccc(F)cc1`, with 5.62. The same measure, in the same setting: in the case of `O=C(O)CCC/C=C\CC1=CCC[C@@H]1NS(=O)(=O)c1ccc2ccccc2c1` it was 5.72; in that of `O=C(O)CCC/C=C\CC1=CCC[C@@H]1NS(=O)(=O)c1cccc2cccnc12`, 5.70. `Cc1ccc(S(=O)(=O)N[C@H]2CCC=C2CCCCOCC(=O)O)cc1` gave a pIC50 of 5.72. The same measure, in the same setting: in the case of `O=C(O)CCC/C=C\C[C@H]1[C@H](F)CC[C@@H]1NS(=O)(=O)c1ccc(F)cc1F` it was 6.70; in that of `O=C(O)CC/C=C\C[C@H]1[C@H](F)CC[C@@H]1NS(=O)(=O)c1ccc(F)cc1`, 6.12. Same read-out and setting: then `O=C(O)CC/C=C/C[C@H]1[C@H](F)CC[C@@H]1NS(=O)(=O)c1ccc(F)cc1F`, with 5.80; and `O=C(O)CCC/C=C\CC1=CCC[C@@H]1CNS(=O)(=O)c1ccc(F)cc1`, with 5.77; and `O=C(O)CC/C=C\CC1=CCC[C@@H]1NS(=O)(=O)c1ccc(F)cc1F`, with 4.70. `O=C(O)CCC/C=C\C[C@H]1[C@H](F)CC[C@@H]1NS(=O)(=O)c1ccc(Cl)cc1` had a negative-log IC50 (pIC50) of 7.15. Against the preceding compound, the pIC50 is 2.45 log units higher. Same read-out and setting: then `O=C(O)COCCCCC1=CCC[C@@H]1NS(=O)(=O)c1ccc(F)cc1F`, with 5.74.

`O=C(O)CCCCC[C@@H]1[C@@H](CNS(=O)(=O)c2ccc(F)cc2)CC[C@H]1F` showed a pIC50 of 5.33. Turning to `O=C(O)CC/C=C\CC1=CCC[C@@H]1NS(=O)(=O)c1ccc(Cl)cc1`, the pIC50 is 5.72. On the same count and under the same terms, in the case of `O=C(O)CCC/C=C\C[C@H]1[C@H](F)CC[C@@H]1NS(=O)(=O)c1ccc(Cl)c(Cl)c1` it was 6.20; in that of `O=C(O)COCCCCC1=CCC[C@@H]1NS(=O)(=O)c1ccccc1[N+](=O)[O-]`, 5.72. As to `O=C(O)CC/C=C\C[C@H]1[C@H](F)CC[C@@H]1NS(=O)(=O)c1ccc(Cl)cc1`, the negative logarithm of the IC50 (pIC50) is 6.68. Still for that read-out and setting: then `O=C(O)COCCCCC1=CCC[C@@H]1NS(=O)(=O)c1ccccc1`, with 5.70; and `Cc1ccc(S(=O)(=O)NC[C@H]2CC[C@@H](F)[C@@H]2C/C=C\CCC(=O)O)cc1`, with 5.72; and `O=C(O)CC/C=C\C[C@H]1[C@H](F)CC[C@@H]1NS(=O)(=O)c1ccc(Cl)c(Cl)c1`, with 5.77. `O=C(O)CCC/C=C\C[C@@H]1[C@@H](CNS(=O)(=O)c2ccc(F)cc2)CC[C@H]1F`: the pIC50 was 5.70. On the same count and under the same terms, in the case of `O=C(O)COCCCC[C@H]1[C@H](F)CC[C@@H]1NS(=O)(=O)c1ccccc1` it was 5.77; in that of `Cc1ccc(S(=O)(=O)N[C@H]2CCC=C2C/C=C\CCCC(=O)O)cc1`, 6.60. In the case of `O=C(O)CCCCCC[C@@H]1[C@@H](CNS(=O)(=O)c2ccc(F)cc2)CC[C@H]1F`, the negative logarithm of the IC50 (pIC50) was 5.22. Compared with the last compound, the pIC50 is 1.38 log units lower. In the case of `O=C(O)CCC/C=C\C[C@H]1[C@H](F)CC[C@@H]1NS(=O)(=O)c1ccccc1[N+](=O)[O-]`, the pIC50 is 5.74. On to `O=C(O)CC/C=C\C[C@@H]1[C@@H](CNS(=O)(=O)c2ccc(Cl)cc2)CC[C@H]1F`, for which the pIC50 is 5.74.

Take `O=C(O)CCC/C=C\CC1=CCC[C@@H]1NS(=O)(=O)c1ccccc1`: the pIC50 is 5.64. In turn, `Cc1ccc(S(=O)(=O)N[C@H]2CC[C@@H](F)[C@@H]2C/C=C\CCC(=O)O)cc1` showed a negative logarithm of the IC50 (pIC50) of 5.72. Same read-out and setting: then `Cc1ccc(S(=O)(=O)N[C@H]2CCC=C2C/C=C\CCC(=O)O)cc1`, with 5.74; and `O=C(O)CC/C=C\CC1=CCC[C@@H]1CNS(=O)(=O)c1ccc(F)cc1`, with 6.22.
